# Earlier results in US20240127967A1.
# System: MARV
# Details: mouse, in vivo; cited from earlier work
compound,measurement,value
CC(C)COCC(CN(Cc1ccccc1)c1ccccc1)N1CCCC1 (stereo not shown) [Bepridil],protection of mice,strongly protected
